Experimental data published in patent publication EP3964206A1, “COMPOUNDS FOR THE TREATMENT OF COVID-19” (priority 2020, dated 2022).
Counter-ions that a name gives are not always drawn. Peptide text beside a SMILES is read from it. * marks the point of attachment. Cbz = O=C(OCc1ccccc1)*

System: SARS-CoV-2
Experiment: microbe, parasite or virus in culture
Assay type: cell-based
Settings: Severe acute respiratory syndrome coronavirus 2, 120 h; for Emax: read-out: Maximum confluence reached (%)

Row | SMILES | Emax [%] | IC50 [µM]
1 | CCCCN(CCCC)CCC(O)c1cc2c(Cl)cc(Cl)cc2c2cc(C(F)(F)F)ccc12 (racemic) [Compound 40, (±)-1,3-Dichloro-9-[3-(dibutylamino)-1-hydroxypropyl]-6-(trifluoromethyl)phenanthrene hydrochloride] | 51.8 | –
2 | CCC(C/C=C/c1ccccc1)(c1ccccc1)N(C)CC1CC1 (single isomer, unassigned; (+)) [Compound 89, (+)-N-(Cyclopropylmethyl)-N-[1-ethyl-1,4-diphenyl-3(E)-butenyl]-N-methylamine] | 58.3 | 11.2
3 | CN(Cc1cnc2nc(N)nc(N)c2n1)c1ccc(C(=O)N[C@@H](CCC(=O)O)C(=O)O)cc1 [Compound 1, N-[4-[N-(2,4-Diaminopteridin-6-ylmethyl)-N-methylamino]benzoyl]-L-glutamic acid] | 64 | 0.05
4 | COc1cc(NCc2ccc3nc(N)nc(N)c3c2C)cc(OC)c1OC [Compound 2, 2,4-Diamino-5-methyl-6-[(3,4,5-trimethoxyanilino)methyl]quinazoline] | 78.2 | –
5 | Nc1nc(N)c2nc(CNc3ccc(C(=O)N[C@@H](CCC(=O)O)C(=O)O)cc3)cnc2n1 [Compound 10, N-[4-(2,4-diamino-6-pteridinylmethylamino)benzolyl]-L-glutamic acid] | 72.5 | –
6 | CN(C)c1cccc(-c2c3c(=O)n(-c4ccccc4Cl)[nH]c3cc(=O)n2C)c1 [Compound 13, 2-(2-Chlorophenyl)-4-[3-(dimethylamino)phenyl]-5-methyl-1H-pyrazolo[4,3-c]pyridine-3,6(2H,5H)-dione] | 102 | 7.57
7 | Nc1ncc(-c2ccnc(Nc3ccncc3)n2)c(CC2CC2)n1 [Compound 20, 4'-(Cyclopropylmethyl)-N2-(pyridin-4-yl)-4,5'-bipyrimidine-2,2'-diamine] | 98.2 | –
8 | C/C(=C\c1ccc(C(=O)O)cc1)c1ccc2c(c1)C(C)(C)CCC2(C)C [Compound 26, 4-[2-(5,5,8,8-Tetramethyl-5,6,7,8-tetrahydronaphthalen-2-yl)-1(E)-propenyl]benzoic acid] | 106 | 33.7
9 | Cc1c(O)cccc1C(=O)N[C@@H](CSc1ccccc1)[C@H](O)CN1C[C@H]2CCCC[C@H]2C[C@H]1C(=O)NC(C)(C)C [Compound 31, (3S,4aS,8aS)-N-tert-Butyl-2-[2(R)-hydroxy-3(R)-(3-hydroxy-2-methylbenzamido)-4-(phenylsulfanyl)butyl]perhydroisoquinoline-3-carboxamide methanesulfonate] | 59.5 | –
10 | c1cncc(CN2CCC(n3ncc4c(N5CCOCC5)nc(-c5ccc6[nH]ccc6c5)nc43)CC2)c1 [Compound 32, 6-(1H-Indol-5-yl)-4-(4-morpholinyl)-1-[1-(pyridin-3-ylmethyl)piperidin-4-yl]-1H-pyrazolo[3,4-d]pyrimidine] | 67.7 | –
11 | COc1ccc2c(c1)[C@]1(C[C@H]1c1ccc3c(/C=C/c4ccc(CN5C[C@@H](C)O[C@@H](C)C5)cc4)n[nH]c3c1)C(=O)N2 [Compound 33, (1R,2S)-2-[3-[(E)-2-[4-[(cis-2,6-Dimethylmorpholin-4-yl)methyl]phenyl]vinyl]-1H-indazol-6-yl]-5'-methoxyspiro[cyclopropane-1,3'-indol]-2'(1'H)-one (2E)-but-2-enedioate] | 105 | –
12 | CNCc1ccc(-c2cc(-c3nc(-c4ccc(S(=O)(=O)C(C)C)cc4)cnc3N)on2)cc1 [Compound 34, 3-[3-[4-[(Methylamino)methyl]phenyl]-1,2-oxazol-5-yl]-5-[4-(propan-2-ylsulfonyl)phenyl]pyrazin-2-amine] | 99.2 | –
13 | COc1cc2c(N3CCN(C(=O)Nc4ccc(OC(C)C)cc4)CC3)ncnc2cc1OCCCN1CCCCC1 [Compound 35, N-(4-Isopropoxyphenyl)-4-[6-methoxy-7-[3-(1-piperidinyl)propoxy]quinazolin-4-yl]piperazine-1-carboxamide] | 80.1 | –
14 | CN1[C@@H]2CC[C@H]1C[C@@H](OC(=O)c1cc(Cl)cc(Cl)c1)C2 [Compound 36, 3,5-Dichlorobenzoic acid endo-8-methyl-8-azabicyclo[3.2.1]oct-3-yl ester] | 69 | 43.9
15 | CC1=NN(c2ccc(C)c(C)c2)C(=O)/C1=N\Nc1cccc(-c2cccc(C(=O)O)c2)c1O [Compound 37, 3'-[2(Z)-[1-(3,4-Dimethylphenyl)-3-methyl-5-oxo-4,5-dihydro-1H-pyrazol-4-ylidene]hydrazino]-2'-hydroxybiphenyl-3-carboxylic acid] | 63.2 | 58.1
16 | CC(=O)[C@]1(O)Cc2c(O)c3c(c(O)c2[C@@H](O[C@H]2C[C@H](N)[C@H](O)[C@H](C)O2)C1)C(=O)c1ccccc1C3=O [Compound 38, (7S,9S)-9-Acetyl-7-[(3-amino-2,3,6-trideoxy-alpha-L-lyxo-hexopyranosyl)oxy]-7,8,9,10-tetrahydro-6,9,11-trihydroxy-5,12-naphthacenedione hydrochloride] | 92.6 | –
17 | Cc1nc(N)nc(N)c1-c1ccc(Cl)c(Cl)c1 [Compound 41, 5-(3,4-Dichlorophenyl)-6-methylpyrimidine-2,4-diamine] | 58 | –

Row | SMILES | Emax [%] | IC50 [µM]
18 | O=C(CCCN1CCC2(CC1)C(=O)N(Cc1cccc(F)c1)CN2c1ccccc1)c1ccc(F)cc1 [Compound 46, 3-[(3-fluorophenyl)methyl]-8-[4-(4-fluorophenyl)-4-oxobutyl]-1-phenyl-1,3,8-triazaspiro[4.5]decan-4-one] | 43 | –
19 | CC(C)c1cnn2c(NCc3ccccc3)cc(NCCCCCCN)nc12 [Compound 48, N5-(6-Aminohexyl)-N7-benzyl-3-isopropylpyrazolo[1,5-a]pyrimidine-5,7-diamine] | 47.3 | –
20 | NC(=NC1C2CC3CC(C2)CC1C3)Nc1ccc(I)cc1 (stereo not shown) [Compound 49, 2-(2-adamantyl)-1-(4-iodophenyl)guanidine] | 81.8 | –
21 | Cc1ccc(NC(=O)c2ccc(CN3CCN(C)CC3)cc2)cc1Nc1nc(-c2cccnc2)cs1 [Compound 50, 4-[(4-methylpiperazin-1-yl)methyl]-N-[4-methyl-3-[(4-pyridin-3-yl-1,3-thiazol-2-yl)amino]phenyl]benzamide] | 57.1 | –
22 | CC1(N2CCC(n3c([C@@H]4CCCNC4)nc4ccccc43)CC2)CCCCCCC1 [Compound 51, 1-[1-(1-Methylcyclooctyl)piperidin-4-yl]-2-[3(R)-piperidinyl]-1H-benzimidazole] | 57.8 | –
23 | CC(C)C[C@@H](C=O)NC(=O)[C@H](CC(C)C)NC(=O)[C@H](CC(C)C)NC(=O)OCc1ccccc1 [Compound 52, Benzyloxycarbonyl-L-leucyl-L-leucyl-L-leucinal] (Cbz-Leu-Leu-Leu-aldehyde) | 82.8 | –
24 | Cc1[nH]c(/C=C2\C(=O)Nc3ccc(S(=O)(=O)Cc4c(Cl)cccc4Cl)cc32)c(C)c1C(=O)N1CCC[C@@H]1CN1CCCC1 [Compound 53, 5-(2,6-Dichlorobenzylsulfonyl)-3(Z)-[3,5-dimethyl-4-[2(R)-(pyrrolidin-1-ylmethyl)pyrrolidin-1-ylcarbonyl]-1H-pyrrol-2-ylmethylene]-2,3-dihydro-1H-indol-2-one] | 95.7 | –
25 | C[C@@H]1COCCN1c1cc(=O)n2c(n1)N(Cc1cncc(Cl)c1)[C@H](C(F)(F)F)CC2 [Compound 54, (8S)-9-[(5-Chloropyridin-3-yl)methyl]-2-[(3R)-3-methylmorpholin-4-yl]-8-(trifluoromethyl)-6,7,8,9-tetrahydro-4H-pyrimido[1,2-a]pyrimidin-4-one] | 89 | –
26 | Nc1nc(=S)c2ncn([C@@H]3O[C@H](CO)[C@@H](O)[C@H]3O)c2[nH]1 [Compound 55, 2-amino-9-[(2R,3R,4S,5R)-3,4-dihydroxy-5-(hydroxymethyl)oxolan-2-yl]-3H-purine-6-thione] | 51.5 | –
27 | O=C(NCCN1CCC2(CC1)C(=O)NCN2c1cccc(F)c1)c1ccc2ccccc2c1 [Compound 56, N-[2-[1-(3-Fluorophenyl)-4-oxo-1,3,8-triazaspiro[4.5]dec-8-yl]ethyl]naphthalen-2-carboxamide] | 98.5 | –
28 | Cc1cc(O[C@@H](CCC(F)(F)F)c2ccc(C(=O)NCCC(=O)O)cc2)cc(C)c1-c1ccc(C(C)(C)C)cc1 [Compound 57, N-(4-[(1S)-1-[(4'-tert-Butyl-2,6-dimethylbiphenyl-4-yl)oxy]-4,4,4-trifluorobutyl]benzoyl)-beta-alanine] | 39.5 | –
29 | C[C@@H]1C[C@@H]([C@H](O)CC2CC(=O)NC(=O)C2)C(=O)[C@@H](C)C1 [Compound 58, 4-[2(R)-[(1S,3S,5S)-3,5-Dimethyl-2-oxocyclohexyl]-2-hydroxyethyl]piperidine-2,6-dione] | 63.7 | –
30 | COc1cc2c(NC3CCN(C4CCCCC4)CC3)nc(N3CCCN(C(C)C)CC3)nc2cc1OCCCN1CCCCC1 [Compound 59, N-(1-Cyclohexylpiperidin-4-yl)-6-methoxy-7-[3-(1-piperidinyl)propoxy]-2-[4-(propan-2-yl)perhydro-1,4-diazepin-1-yl]quinazolin-4-amine] | 80.1 | –
31 | CC(C)(O)CNc1ncc(-c2ccnc(Nc3ccnc(Cl)c3)n2)c(CC2CC2)n1 [Compound 60, 1-[[2-[(2-chloro-4-pyridinyl)amino]-4'-(cyclopropylmethyl)[4,5'-bipyrimidin]-2'-yl]amino]-2-methyl-2-propanol] | 45.6 | –
32 | COc1ccccc1[C@H](Cn1c(=O)n(C(C)(C)C(=O)O)c(=O)c2c(C)c(-c3ncco3)sc21)OC1CCOCC1 [Compound 61, 2-[1-[(2R)-2-(2-Methoxyphenyl)-2-(tetrahydro-2H-pyran-4-yloxy)ethyl]-5-methyl-6-(1,3-oxazol-2-yl)-2,4-dioxo-1,4-dihydrothieno[2,3-d]pyrimidin-3(2H)-yl]-2-methylpropanoic acid] | 78.2 | –
33 | Cc1ccc(C(=O)Nc2cccc(C(F)(F)F)c2)cc1Nc1nc(-c2cccnc2)nc2c1cnn2C [Compound 62, 4-methyl-3-{[1-methyl-6-(3-pyridinyl)-1H-pyrazolo[3,4-d]pyrimidin-4-yl]amino}-N-[3-(trifluoromethyl)phenyl]benzamide] | 88.4 | –
34 | Cn1nc(C(C)(C)C)cc1C(=O)N[C@@H](Cc1cccc(Cl)c1)C(=O)NCC#N [Compound 63, 3-tert-butyl-N-{(1S)-1-(3-chlorobenzyl)-2-[(cyanomethyl)amino]-2-oxoethyl}-1-methyl-1H-pyrazole-5-carboxamide] | 96.2 | –
